# In patent publication US6410558B1, “Fungicides for the control of take-all disease of plants” (Monsanto Technology LLC, priority 1991, dated 2002):
# Test system: Gaeumannomyces graminis var. tritici (Ggt)
# Assay: In vitro Assay: mycelial growth of Ggt on minimal media agar plates containing test compound
# Type: cell-based
# Details: Gaeumannomyces graminis, dark, 19-20° C., 4 to 5 days, diameter of mycelial growth; for inhibition at 0.1 ppm: 0.1 ppm in minimal media agar, read-out: In vitro (ppm) 0.1, Percent Inhibition; for inhibition at 1 ppm: 1 ppm in minimal media agar, read-out: In vitro (ppm) 1, Percent Inhibition; for inhibition at 10 ppm: 10 ppm in minimal media agar, read-out: In vitro (ppm) 10, Percent Inhibition
# Summary of the method: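 Ggt mycelial diameter read after 4 to 5 days in darkness at 19-20° C, from three 4-mm plugs placed on Czapek Dox minimal agar containing test compound delivered in acetone. Inhibition expressed as percent versus untreated plates, plug size (4 mm) subtracted from both.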
SMILES,inhibition at 0.1 ppm,inhibition at 1 ppm,inhibition at 10 ppm
"CCNC(=O)c1ccncc1[Si](C)(C)C [Example 124, N-Ethyl-3-(trimethylsilyl)-4-pyridinecarboxamide]",< 0%,< 0%,62%
"CCNC(=O)c1sc(I)cc1[Si](C)(C)C [Example 257, N-Ethyl-5-iodo-3-(trimethylsilyl)-2-thiophenecarboxamide]",3%,23%,100%
"CCNC(=O)c1c([Si](C)(C)C)ccc(I)c1Cl [Example 239, 2-Chloro-N-ethyl-3-iodo-6-(trimethylsilyl)benzamide]",22%,57%,87%
"COc1cc(CNC(=O)c2c(Cl)cccc2[Si](C)(C)C)cc(OC)c1OC [Example 140, 2-Chloro-N-[(3,4,5-trimethoxyphenyl)methyl]-6-(trimethylsilyl)benzamide]",19%,19%,81%
"CCN(CC)C(=O)c1c(C(=O)OC)ccc(F)c1[Si](C)(C)C [Example 42, 2-[(Diethylamino)carbonyl]-4-fluoro-3-(trimethylsilyl)benzoic acid, methyl ester]",< 0%,< 0%,30%
"CCNC(=O)c1c(Cl)cccc1-c1cccc2ccccc12 [Example 73, 2-Chloro-N-ethyl-6-(1-naphthalenyl)benzamide]",13%,60%,83%
"C[Si](C)(C)c1cccc(Cl)c1C(=O)Nc1ccccc1C1CCCC1 [Example 158, 2-Chloro-N-(2-cyclopentylphenyl)-6-(trimethylsilyl)benzamide]",2%,33%,44%
"CCN(CC)C(=O)c1c(C)cc(C)cc1[Si](C)(C)C [Example 60, N,N-Diethyl-2,4-dimethyl-6-(trimethylsilyl)benzamide]",< 0%,< 0%,19%
"Cc1ccc(F)c([Si](C)(C)C)c1C(=O)N(C)C(C)(C)C [Example 11, N-(1,1-Dimethylethyl)-3-fluoro-N,6-dimethyl-2-(trimethylsilyl)benzamide]",< 0%,< 0%,24%
"C[Si](C)(C)c1cccc(Cl)c1C(=O)NCc1ccccc1 [Example 31, 2-Chloro-N-(phenylmethyl)-6-(trimethylsilyl)benzamide]",< 0%,4%,96%
"C=CCN(SC)C(=O)c1sc(Cl)cc1[Si](C)(C)C [Example 273, 5-Chloro-N-(methylthio)-N-2-propenyl-3-(trimethylsilyl)-2-thiophenecarboxamide]",35%,48%,100%
"CCN(CC)C(=O)c1c([Si](C)(C)C)ccc(Cl)c1Cl [Example 84, N,N-Diethyl-2,3-dichloro-6-(trimethylsilyl)benzamide]",< 0%,66%,100%
"CCNC(=O)c1occc1[Si](C)(C)C [Example 252, N-Ethyl-3-(trimethylsilyl)-2-furancarboxamide]",5%,28%,100%
"CCN(C(=O)c1cc(N(C)C)ccc1[Si](C)(C)C)C(OC)C(C)(C)C (stereo not drawn) [Example 222, 5-(Dimethylamino)-N-ethyl-N-(1-methoxy-2,2-dimethylpropyl)-2-(trimethylsilyl)benzamide]",< 0%,< 0%,96%
"CCN(CC)C(=O)c1c(C(=O)OC(C)C)ccc(F)c1[Si](C)(C)C [Example 43, 2-[(Diethylamino)carbonyl]-4-fluoro-3-(trimethylsilyl)benzoic acid, 1-methylethyl ester]",< 0%,< 0%,63%
